Here are results for 1 molecule from US20060083657A1, “Indicator device having an active agent encapsulated in an electrospun nanofiber” (STERIS Inc., priority 2004, published 2006).

For assay [1], the system named is Staphylococcus aureus ATCC 6538. The experiment in a line: Disk diffusion method, zone of inhibition on lawn plates. The class given is cell-based. The conditions noted are these: polymer mat disk, 37° C., 7 days. Here is the method:
(§1) The effectiveness of the CHG polymer mat was investigated using a disk diffusion method on Staphylococcus aureus ATCC 6538 and Escherichia coli ATCC 25922 lawn plates. The plates were prepared for each organism by dispensing and spreading 0.1 mL of the bacterium over the entire surface of prepared tryptic soy agar plates to create a “lawn.” Concentrations of chlorhexidine gluconate (CHG) at 0.25%, 0.5%, and 1.0% were electrospun with Tecoflex to produce an antimicrobial polymer mat. The polymer mats were cut into two 0.5-1.0 inch diameter disks for each CHG concentration. One disk per plate was placed into the center of the bacterial plate The plates were then incubated at 37° C. for 7 days to determine the zone of inhibition or antimicrobial coverage around the disk (measured in millimeters diameter), which simulates the persistence of an antimicrobial dressing to inactivate resident microorganisms on the skin. For S. aureus, 0.25%, 0.50%, and 1.0% CHG was effective showing mean zones of 20 mm, 25 mm, and 25 mm zones, respectively at 7 days, while at the same concentrations E. coli mean zones were 11 mm, 23 mm, and 28 mm.
(Agar diffusion results depend on both activity and mobility in agar.)

Assay [2] relates to Escherichia coli ATCC 25922. The assay is described as above. It is filed as cell-based. The conditions noted are these: polymer mat disk, 37° C., 7 days. As to the method:
as §1

The mark [3] stands for this setting: 0.25% CHG electrospun with Tecoflex.
[4] abbreviates: 0.50% CHG electrospun with Tecoflex.
The mark [5] stands for this setting: 1.0% CHG electrospun with Tecoflex.

For the molecule `N=C(NCCCCCCNC(=N)NC(=N)Nc1ccc(Cl)cc1)NC(=N)Nc1ccc(Cl)cc1.O=C(O)[C@H](O)[C@@H](O)[C@H](O)[C@H](O)CO.O=C(O)[C@H](O)[C@@H](O)[C@H](O)[C@H](O)CO` [CHG, Chlorhexidine Gluconate], the “mean zone of inhibition (diameter)” value amounted to 20 mm in assay [1] (setting [3]); 25 mm in assay [1] (setting [4]); 25 mm in assay [1] (setting [5]); 11 mm in assay [2] (setting [3]); 23 mm in assay [2] (setting [4]); 28 mm in assay [2] (setting [5]).
